Among the data in US20160122342A1, “ENHANCER OF ZESTE HOMOLOG 2 INHIBITORS” (GLAXOSMITHKLINE INTELLECTUAL PROPERTY (NO.2) LIMITED, priority 2013, published 2016) are IC50 values, retold here.

Structures are written as SMILES. Structures can show the parent of a compound that is named as a salt.

In the first experiment the target is T1, EZH2 within the PRC2 complex (Homo sapiens, UniProt Q15910).
T1 construct: FLAG; made in house; host or cells: Sf9 cells
T1 sequence (Q15910 whole entry): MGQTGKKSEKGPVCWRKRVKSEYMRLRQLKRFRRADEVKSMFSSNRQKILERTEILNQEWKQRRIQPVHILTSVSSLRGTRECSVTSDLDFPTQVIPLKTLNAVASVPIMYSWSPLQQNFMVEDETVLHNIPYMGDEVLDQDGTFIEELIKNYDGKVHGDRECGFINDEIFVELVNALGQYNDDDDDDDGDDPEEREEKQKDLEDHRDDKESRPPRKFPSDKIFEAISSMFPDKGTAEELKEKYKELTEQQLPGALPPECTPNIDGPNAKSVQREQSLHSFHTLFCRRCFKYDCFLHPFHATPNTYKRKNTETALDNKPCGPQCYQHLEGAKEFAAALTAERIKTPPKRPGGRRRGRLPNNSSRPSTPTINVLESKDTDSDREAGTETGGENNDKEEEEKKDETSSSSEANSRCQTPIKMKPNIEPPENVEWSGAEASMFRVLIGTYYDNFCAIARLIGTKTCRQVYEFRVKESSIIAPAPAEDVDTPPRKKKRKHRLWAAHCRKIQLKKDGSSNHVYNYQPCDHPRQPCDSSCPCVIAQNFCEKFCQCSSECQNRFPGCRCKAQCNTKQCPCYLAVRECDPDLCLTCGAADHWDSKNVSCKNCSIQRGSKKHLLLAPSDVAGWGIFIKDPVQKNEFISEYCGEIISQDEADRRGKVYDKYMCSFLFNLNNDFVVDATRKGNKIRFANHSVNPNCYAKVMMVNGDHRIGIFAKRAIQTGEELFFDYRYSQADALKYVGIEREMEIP
T1 sequence (O75530 whole entry partner): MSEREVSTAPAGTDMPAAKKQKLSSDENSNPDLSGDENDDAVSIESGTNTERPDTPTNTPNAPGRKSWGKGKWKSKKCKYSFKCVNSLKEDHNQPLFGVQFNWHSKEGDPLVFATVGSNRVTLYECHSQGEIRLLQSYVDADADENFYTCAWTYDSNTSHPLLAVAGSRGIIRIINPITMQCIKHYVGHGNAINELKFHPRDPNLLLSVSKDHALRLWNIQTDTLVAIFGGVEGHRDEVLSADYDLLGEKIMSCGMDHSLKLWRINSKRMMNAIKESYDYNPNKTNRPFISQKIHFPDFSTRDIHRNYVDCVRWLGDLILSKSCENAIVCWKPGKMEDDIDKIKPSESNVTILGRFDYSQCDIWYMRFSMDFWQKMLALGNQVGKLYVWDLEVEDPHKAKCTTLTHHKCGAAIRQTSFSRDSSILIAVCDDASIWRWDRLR
T1 sequence (Q15022 whole entry partner): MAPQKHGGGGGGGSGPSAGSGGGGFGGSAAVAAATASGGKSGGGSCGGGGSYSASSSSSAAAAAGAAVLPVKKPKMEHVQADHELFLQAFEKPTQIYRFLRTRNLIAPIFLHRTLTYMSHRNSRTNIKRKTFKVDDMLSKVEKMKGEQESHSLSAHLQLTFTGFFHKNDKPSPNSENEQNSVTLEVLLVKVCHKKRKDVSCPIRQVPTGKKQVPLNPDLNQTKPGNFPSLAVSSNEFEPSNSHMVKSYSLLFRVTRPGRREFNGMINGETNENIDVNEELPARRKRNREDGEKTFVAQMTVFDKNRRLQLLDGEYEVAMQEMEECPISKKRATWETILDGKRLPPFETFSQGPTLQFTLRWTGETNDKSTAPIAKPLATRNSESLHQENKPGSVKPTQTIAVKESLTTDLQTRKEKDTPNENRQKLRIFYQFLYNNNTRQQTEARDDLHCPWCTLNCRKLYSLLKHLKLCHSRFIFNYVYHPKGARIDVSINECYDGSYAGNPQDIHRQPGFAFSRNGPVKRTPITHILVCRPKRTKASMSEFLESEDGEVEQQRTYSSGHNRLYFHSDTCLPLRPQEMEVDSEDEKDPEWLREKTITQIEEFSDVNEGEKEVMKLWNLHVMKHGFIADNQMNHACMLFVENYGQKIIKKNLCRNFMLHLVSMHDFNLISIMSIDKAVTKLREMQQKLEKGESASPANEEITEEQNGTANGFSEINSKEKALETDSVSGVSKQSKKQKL
T1 sequence (Q09028 whole entry partner): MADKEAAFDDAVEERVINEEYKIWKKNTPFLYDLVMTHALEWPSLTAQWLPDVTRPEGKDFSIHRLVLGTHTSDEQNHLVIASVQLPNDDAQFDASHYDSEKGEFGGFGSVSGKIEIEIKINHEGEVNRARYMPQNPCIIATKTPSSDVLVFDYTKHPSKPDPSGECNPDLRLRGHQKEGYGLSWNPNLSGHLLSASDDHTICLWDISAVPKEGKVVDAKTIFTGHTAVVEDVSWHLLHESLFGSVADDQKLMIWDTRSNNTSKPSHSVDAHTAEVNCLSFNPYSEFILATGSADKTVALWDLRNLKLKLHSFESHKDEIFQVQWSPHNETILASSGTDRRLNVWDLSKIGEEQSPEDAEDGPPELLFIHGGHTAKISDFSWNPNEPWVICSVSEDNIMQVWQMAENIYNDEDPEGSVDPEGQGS
T1 sequence (Q6ZN18 whole entry partner): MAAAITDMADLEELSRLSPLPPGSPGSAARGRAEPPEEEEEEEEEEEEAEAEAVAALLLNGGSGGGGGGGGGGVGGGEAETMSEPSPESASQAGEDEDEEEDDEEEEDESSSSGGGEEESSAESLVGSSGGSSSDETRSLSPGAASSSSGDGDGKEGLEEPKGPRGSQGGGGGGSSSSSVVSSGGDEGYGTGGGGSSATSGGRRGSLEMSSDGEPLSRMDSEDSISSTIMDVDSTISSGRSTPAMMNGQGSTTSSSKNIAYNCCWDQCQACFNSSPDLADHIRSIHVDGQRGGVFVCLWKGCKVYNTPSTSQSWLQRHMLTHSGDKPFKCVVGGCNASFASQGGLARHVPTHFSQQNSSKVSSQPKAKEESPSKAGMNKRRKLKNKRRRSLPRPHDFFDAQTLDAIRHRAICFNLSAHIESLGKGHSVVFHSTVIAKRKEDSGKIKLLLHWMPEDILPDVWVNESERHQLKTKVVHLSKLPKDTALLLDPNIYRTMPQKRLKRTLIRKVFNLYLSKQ
Kind of experiment: Assay Protocol 1: EZH2 methyltransferase scintillation proximity assay, mononucleosome substrate.
Details: not given
The format is biochemical. How it is done:
Compounds contained herein were evaluated for their ability to inhibit the methyltransferase activity of EZH2 within the PRC2 complex. […] Mononucleosomes were captured on SPA beads and the resulting signal is read on a ViewLux plate reader. • 1. Prepare 10 mM stock of compounds from solid in 100% DMSO. • 2. […] Dispense 100 nL of compound from the dilution plate into reaction plates (Grenier Bio-One, 384-well, Cat#784075). Prepare the following solutions: • 1. 50 mM Tris-HCl, pH 8: Per 1 L of base buffer, combine 1 M Tris-HCl, pH 8 (50 mL) and distilled water (950 mL). • 2. 1× Assay Buffer: […] SPA Bead Suspension: […] Per 10 mL of 2× Substrate Solution, combine 1× Assay Buffer (9728.55 uL), 800 ug/mL mononucleosomes (125 uL), 1 mM cold SAM (4 uL), and 7.02 uM 3H-SAM (142.45 uL; 0.55 mCi/mL) to provide a final concentration of 5 ug/mL nucleosomes, 0.2 uM cold SAM, and 0.05 uM 3H-SAM. • 6. 2.67× Quench/Bead Mixture: Per 10 mL of 2.67× Quench/Bead Mixture, combine ddH2O (9358 uL), 10 mM cold SAM (267 uL), 40 mg/mL Bead Suspension (375 uL) to provide a final concentration of 100 uM cold SAM and 0.5 mg/mL SPA beads. • 1. Dispense 100 nL/well of 100× Compound to test wells (as noted above). • 2. […] • 1. Dispense 5 uL/well of 1× Assay Buffer to column 18 (low control reactions). • 2. Dispense 5 uL/well of 2× Enzyme Solution to columns 1-17, 19-24. • 3. Spin assay plates for ˜1 minute at 500 rpm. • 4. Stack the assay plates, covering the top plate. • 5. Incubate the compound/DMSO with the enzyme for 30 minutes at room temperature. • 6. Dispense 5 uL/well of 2× Substrate Solution to columns 1-24. • 7. Spin assay plates for ˜1 minute at 500 rpm. • 8. Stack the assay plates, covering the top plate. • 9. Incubate the assay plates at room temperature for 1 hour. • 1. Dispense 5 uL/well of the 3× Quench/Bead Mixture to columns 1-24. • 2. Seal the top of each assay plate with adhesive TopSeal. • 3. Spin assay plates for ˜1 minute at 500 rpm. • 4. […] • 1. Read the assay plates on the Viewlux Plate Reader utilizing the 613 nm emission filter with a 300 s read time. Reagent addition can be done manually or with automated liquid handler. The final DMSO concentration in this assay is 1%. The positive control is in column 6; negative control is in column 18. Final starting concentration of compounds is 100 μM. Percent inhibition was calculated relative to the DMSO control for each compound concentration and the resulting values were fit using standard IC50 fitting parameters within the ABASE data fitting software package.
A general note: SPA uses beads or plates that emit light when radiolabelled molecules are held near them.
Broadly, the IC50 is the concentration at which inhibition is half-maximal. Compound `Cc1cc2c(c(=O)[nH]1)CNC(=O)c1cc(Cl)cc(O[C@H]3CC[C@H](N)CC3)c1C/C=C\CC2` [Example 4, (Z)-10-((trans-4-aminocyclohexyl)oxy)-12-chloro-3-methyl-5,6,15,16-tetrahydrobenzo[c]pyrido[4,3-j][1]azacyclododecine-1,14(2H,9H)-dione hydrochloride] had an IC50 of 2510 nM.

The experiment is the same for the next values; noted with them: Assay Protocol 1; SPA, 3H-SAM, Histone H3 of mononucleosome purified from HeLa cells; 5-member PRC2 complex; read-out: EZH2 IC50.
As to `Cc1cc2c(c(=O)[nH]1)CNC(=O)c1cc(Cl)cc(O[C@H]3CC[C@H](N(C)C)CC3)c1C/C=C\CC2` [Example 5, (Z)-12-chloro-10-((trans-4-(dimethylamino)cyclohexyl)oxy)-3-methyl-5,6,15,16-tetrahydrobenzo[c]pyrido[4,3-j][1]azacyclododecine-1,14(2H,9H)-dione], the 50% inhibitory concentration (IC50) was determined as 2510 nM.

As for `CCN(c1cccc2c1C/C=C\CCc1cc(C)[nH]c(=O)c1CNC2=O)C1CCOCC1` [Example 7, (Z)-10-(ethyl(tetrahydro-2H-pyran-4-yl)amino)-3-methyl-5,6,15,16-tetrahydrobenzo[c]pyrido[4,3-j][1]azacyclododecine-1,14(2H,9H)-dione hydrochloride, 0.10 1,4-dioxane solvate], the half-maximal inhibitory concentration (IC50) came to 1590 nM.

For `CCN(c1cccc2c1C/C=C/CN(C)Cc1cc(C)[nH]c(=O)c1CNC2=O)C1CCOCC1` [Example 10, (E)-11-(ethyl(tetrahydro-2H-pyran-4-yl)amino)-3,6-dimethyl-5,6,7,10,16,17-hexahydro-1H-benzo[h]pyrido[4,3-c][1,6]diazacyclotridecine-1,15(2H)-dione], the concentration for half-maximal inhibition (IC50) worked out at 1000 nM.

Turning to `CCN(c1cccc2c1CCCCOCc1cc(C)[nH]c(=O)c1CNC2=O)C1CCOCC1` [Example 11, 11-(ethyl(tetrahydro-2H-pyran-4-yl)amino)-3-methyl-7,8,9,10,16,17-hexahydrobenzo[h]pyrido[4,3-c][1,6]oxaazacyclotridecine-1,15(2H,5H)-dione], the half-inhibitory concentration (IC50) came to 501 nM.

As for `CCN(c1cccc2c1C/C=C\COc1cc(C)[nH]c(=O)c1CNC2=O)C1CCOCC1` [Example 13, (Z)-10-(ethyl(tetrahydro-2H-pyran-4-yl)amino)-3-methyl-6,9,15,16-tetrahydro-1H-benzo[g]pyrido[4,3-b][1,5]oxaazacyclododecine-1,14(2H)-dione], the IC50 was found to be 794 nM.

As to `COc1cc(Cl)cc2c1C/C=C/CCc1cc(C)[nH]c(=O)c1CNC2=O` [Example 15, (E)-12-chloro-10-methoxy-3-methyl-5,6,15,16-tetrahydrobenzo[c]pyrido[4,3-j][1]azacyclododecine-1,14(2H,9H)-dione], the concentration for half-maximal inhibition (IC50) amounted to 501 nM.

In another experiment the target is T1, EZH2 within the PRC2 complex. Kind of experiment: Assay Protocol 2: EZH2 methyltransferase scintillation proximity assay, biotinylated histone H3 peptide substrate. The format is biochemical. The note with it: SPA, 3H-SAM, biotinylated unmethylated histone H3K27 peptide substrate, 5-member PRC2 complex. How it is done:
Compounds contained herein were evaluated for their ability to inhibit the methyltransferase activity of EZH2 within the PRC2 complex. […] The peptides were captured on streptavidin-coated SPA beads and the resulting signal was read on a ViewLux plate reader. • 4. Prepare 10 mM stock of compounds from solid in 100% DMSO. • 5. […] Dispense 10 nL of compound from the dilution plate into reaction plates (Corning, 384-well polystyrene NBS, Cat#3673). Prepare the following solutions: • 7. 1× Base Buffer, 50 mM Tris-HCl, pH 8, 2 mM MgCl2: Per 1 L of base buffer, combine 1 M Tris-HCl, pH 8 (50 mL), 1 M MgCl2 (2 mL), and distilled water (948 mL). • 8. 1× Assay Buffer: Per 10 mL of 1× Assay Buffer, combine 1× Base Buffer (9.96 mL), 1 M DTT (40 uL), and 10% Tween-20 (1 uL) to provide a final concentration of 50 mM Tris-HCl, pH 8, 2 mM MgCl2, 4 mM DTT, 0.001% Tween-20. • 9. 2× Enzyme Solution: […] SPA Bead Solution: Per 1 mL of SPA Bead Solution, combine Streptavidin coated SPA beads (PerkinElmer, Cat# RPNQ0261, 40 mg) and 1× Assay Buffer (1 mL) to provide a working concentration of 40 mg/mL. • 11. 2× Substrate Solution: Per 10 mL of 2× Substrate Solution, combine 40 mg/mL SPA Bead Solution (375 uL), 1 mM biotinylated histone H3K27 peptide (200 uL), 12.5 uM 3H-SAM (240 uL; 1 mCi/mL), 1 mM cold SAM (57 uL), and 1× Assay Buffer (9.13 mL) to provide a final concentration of 0.75 mg/mL SPA Bead Solution, 10 uM biotinylated histone H3K27 peptide, 0.15 uM 3H-SAM (˜12 uCi/mL 3H-SAM), and 2.85 uM cold SAM. • 12. 2.67× Quench Solution: Per 10 mL of 2.67× Quench Solution, combine 1× Assay Buffer (9.73 mL) and 10 mM cold SAM (267 uL) to provide a final concentration of 100 uM cold SAM. • 3. […] Dispense 5 uL/well of 1× Assay Buffer to column 18 (low control reactions). • 11. Dispense 5 uL/well of 2× Substrate Solution to columns 1-24 (note: substrate solution should be mixed to ensure homogeneous bead suspension before dispensing into matrix reservoir). • 12. Dispense 5 uL/well of 2× Enzyme Solution to columns 1-17, 19-24. • 13. Incubate the reaction for 60 min at room temperature. • 5. Dispense 6 uL/well of the 2.67× Quench Solution to columns 1-24. • 6. Seal assay plates and spin for ˜1 min at 500 rpm. • 7. Dark adapt plates in the ViewLux instrument for 15-60 min. • 2. Read the assay plates on the Viewlux Plate Reader utilizing the 613 nm emission filter or clear filter (300 s exposure). Reagent addition can be done manually or with automated liquid handler. Percent inhibition was calculated relative to the DMSO control for each compound concentration and the resulting values were fit using standard IC50 fitting parameters within the ABASE data fitting software package.
For `CCN(c1cccc2c1C/C=C/CCc1cc(C)[nH]c(=O)c1CNC2=O)[C@H]1CC[C@H](O)CC1` [Example 79, (E)-10-(ethyl(trans-4-hydroxycyclohexyl)amino)-3-methyl-5,6,15,16-tetrahydrobenzo[c]pyrido[4,3-j][1]azacyclododecine-1,14(2H,9H)-dione], the half-maximal inhibitory concentration (IC50) is 126 nM.

Turning to `CCN(c1cccc2c1C/C=C/CCc1cc(C)[nH]c(=O)c1CNC2=O)[C@H]1CC[C@@H](N2CC(F)(F)C2)CC1` [Example 80, (E)-10-((cis-4-(3,3-difluoroazetidin-1-yl)cyclohexyl)(ethyl)amino)-3-methyl-5,6,15,16-tetrahydrobenzo[c]pyrido[4,3-j][1]azacyclododecine-1,14(2H,9H)-dione], the IC50 stood at 200 nM.

In turn, `CCN(c1cccc2c1C/C=C/CCc1cc(C)[nH]c(=O)c1CNC2=O)[C@H]1CC[C@H](N2CC(F)(F)C2)CC1` [Example 81, (E)-10-((trans-4-(3,3-difluoroazetidin-1-yl)cyclohexyl)(ethyl)amino)-3-methyl-5,6,15,16-tetrahydrobenzo[c]pyrido[4,3-j][1]azacyclododecine-1,14(2H,9H)-dione] showed an IC50 of 200 nM.

`CCN(c1cccc2c1C/C=C/CCc1cc(C)[nH]c(=O)c1CNC2=O)[C@H]1CC[C@@H](NCCC(F)(F)F)CC1` [Example 82, (E)-10-(ethyl(cis-4-((3,3,3-trifluoropropyl)amino)cyclohexyl)amino)-3-methyl-5,6,15,16-tetrahydrobenzo[c]pyrido[4,3-j][1]azacyclododecine-1,14(2H,9H)-dione]: half-maximal inhibition (IC50) required 251 nM.

Regarding `CCN(c1cccc2c1C/C=C/CCc1cc(C)[nH]c(=O)c1CNC2=O)[C@H]1CC[C@H](NCCC(F)(F)F)CC1` [Example 83, (E)-10-(ethyl(trans-4-((3,3,3-trifluoropropyl)amino)cyclohexyl)amino)-3-methyl-5,6,15,16-tetrahydrobenzo[c]pyrido[4,3-j][1]azacyclododecine-1,14(2H,9H)-dione], the IC50 came out at 158 nM.

`Cc1cc2c(c(=O)[nH]1)CNC(=O)c1cccc(O[C@H]3CC[C@H](N(C)C)CC3)c1C/C=C/CC2` [Example 84, (E)-10-((trans-4-(dimethylamino)cyclohexyl)oxy)-3-methyl-5,6,15,16-tetrahydrobenzo[c]pyrido[4,3-j][1]azacyclododecine-1,14(2H,9H)-dione] came in with a half-maximal inhibitory concentration (IC50) of 200 nM.

For `Cc1cc2c(c(=O)[nH]1)CNC(=O)c1cccc(O[C@H]3CC[C@H](N(C)C)CC3)c1C/C=C\CC2` [Example 85, (Z)-10-((trans-4-(dimethylamino)cyclohexyl)oxy)-3-methyl-5,6,15,16-tetrahydrobenzo[c]pyrido[4,3-j][1]azacyclododecine-1,14(2H,9H)-dione], 5010 nM corresponded to half-maximal inhibition (IC50).

`CCN(c1cccc2c1C/C=C/CCc1cc(C)[nH]c(=O)c1CNC2=O)[C@H]1CC[C@@H](N2CCOCC2)CC1` [Example 86, (E)-10-(ethyl(cis-4-morpholinocyclohexyl)amino)-3-methyl-5,6,15,16-tetrahydrobenzo[c]pyrido[4,3-j][1]azacyclododecine-1,14(2H,9H)-dione] came in with an IC50 of 200 nM.
